Data as given in patent US9370554B2, “Method for treating breast cancer with prolactin receptor agonists” (Orbis Health Solutions LLC, priority 2010, dated 2016).

B1: human prolactin (protein, UniProt P01236 29-227, looked up)
Prolactin: LPICPGGAARCQVTLRDLFDRAVVLSHYIHNLSSEMFSEFDKRYTHGRGFITKAINSCHTSSLATPEDKEQAQQMNQKDFLSLIVSILRSWNEPLYHLVTEVRGMQEAPEAILSKAVEIEEQTKRLLEGMELIVSQVHPETKENEIYPVWSGLPSLQMADEESRLSAYYNLLHCLRRDSHKIDNYLKLLKCRIIHNNNC

Key:
McNeuA implanted mice = test: In vivo combination therapy on McNeuA implanted FVB mice (Example 2); design: species or system mouse; details: four-week regimen, weekly Dox with or without daily hPRL injection; for Time to relapse: X, Y are placeholders
Text: Finally, the efficacy of the treatment is examined in vivo by implanting McNeuA cell into FVB mice. Two weeks after tumor cell inoculation, a four-week treatment regimen is applied (weekly Dox with or without daily hPRL injection). Tumor growth and the time to relapse is monitored and compared among groups.

[1] = test system: MCF-7 human breast cancer cells; test: Tumorsphere formation assay, MCF-7 (Example 1); assay type: cell-based; details: 11 days of treatment, hPRL 0.5 μg/ml, Dox 25 ng/ml, tumorspheres greater than 100 μm, FIG. 1
Experimental: Tumor sphere formation assay and aldehyde dehydrogenase (ALDH) activity measured by flow cytometry were used to measure the functional response of the CSCs after 11 days of co-treatment with human prolactin (hPRL) and doxorubicin (Dox). MCF-7 and MMTV-neu cells were cultured by standard methods known in the art. Briefly, unsorted MCF-7 cells were plated in ultra-low attachment plate (Corning Inc, Corning, N.Y.) at a density of 5000 cells/ml in serum-free Dulbecco's Modified Eagle Medium—F12 (DMEM-F12) supplemented with 0.4% bovine serum albumin (BSA), 10 ng/mL of basic fibroblast growth factor (bFGF), 20 ng/ml of epidermal growth factor (EGF), 5 μg/ml of insulin (all from Sigma-Aldrich Co., St. Louis, Mo.). Tumorspheres were allowed to form in 37° C. with 5% CO2 for 10 days. Culture medium were replaced two times in the course of treatment. Similar culturing method was applied to MMTV-neu cells in the exception of MMTV-neu cells were plated at a density of 200,000 cells/ml. Cells were treated with 0.5 μg/ml of hPRL, 25 ng/ml of doxorubicin or a combination of 0.5 μg/ml hRPL and 25 ng/ml doxorubicin. After 11 days of treatment, the cells were analyzed for tumorsphere formation and ALDH activity levels. Tumorsphere formation was determined by spheres formed in the culture medium. Spheres number were counted manually under four random fields of the 24-well at 40× magnification.

[2] = test system: MCF-7, SKBR3 and McNeuA breast cancer cell lines; test: ALDH testing, cell lines of Example 2; assay type: cell-based, human and mouse; details: Example 2 cell lines; 12, 24 and 48 hours of treatment
Text: (§1) Three breast cancer cell lines are used in this assay: two human breast cancer cell lines, MCF-7 (ER^high, HER2^low) and SKBR3 (ER^low, HER2^high), and one mouse breast cancer cell line that was established from HER2/neu transgenic mice (McNeuA). After establishing the dose response curves, all three cell lines will be used for two in vitro studies. The cells will be treated with a standard chemotherapeutic drug, doxorubicin (Dox) alone (Max or IC50) or in combination with hPRL (Max or IC50).
Next, the CSC population is measured by two sets of the stem cell markers, aldehyde dehydrogenase (ALDH) and CD44^high/CD24^low after a 12-, 24- and 48 hours of treatment using flow cytometry methods as described in Example 2.

[3] = test system: MCF-7, SKBR3 and McNeuA breast cancer cell lines; test: Tumorsphere evaluation, all cell lines tested (Example 2); assay type: cell-based, human and mouse; details: 7 and 14 days of treatment
Text: as §1
First, the functional response of CSCs is measured by standard colony formation and tumorsphere formation assays after 7- and 14 days of treatment using methods described above in Example 2.

[4] = test system: MCF-7 human breast cancer cells; test: ALDH activity by flow cytometry (ALDEFLUOR), MCF-7 tumorspheres (Example 1); assay type: cell-based; details: 11 days, hPRL 0.5 μg/ml, Dox 25 ng/ml, FIG. 2
Experimental: (§2) MCF-7 human breast cancer cells and primary mouse breast cancer cells isolated from MMTV-neu transgenic mice were used in this study. Tumor sphere formation assay and aldehyde dehydrogenase (ALDH) activity measured by flow cytometry were used to measure the functional response of the CSCs after 11 days of co-treatment with human prolactin (hPRL) and doxorubicin (Dox).
(§3) Cells were treated with 0.5 μg/ml of hPRL, 25 ng/ml of doxorubicin or a combination of 0.5 μg/ml hRPL and 25 ng/ml doxorubicin. After 11 days of treatment, the cells were analyzed for tumorsphere formation and ALDH activity levels.
Accordingly, to determine the number of CSCs in a tumor sample, ALDH activity levels were determined by the ALDEFLUOR kit (StemCell Technologies, Vancouver, BC, Canada). Briefly, tumorspheres were dissociated by trypsin (Invitrogen, Carlsbad, Calif.) at 37° C. for 5 minutes and resuspended in ALDEFLUOR assay buffer containing ALDH substrate (BODIPY-aminoacetaldehyde, 1 μM per 1×10^6 cells). An aliquot of the cells were treated with 7.5 μM of diethylaminobenzaldehyde (DEAB), an inhibitor of ALDH, as the negative control. Samples were incubated in 37° C. with 5% CO2 for 45 minutes and analyzed by FACSCalibur (Becton Dickinson Co., Franklin Lakes, N.J.). The ALDH-positive gate was established using the negative control treated with DEAB.

[5] = test system: primary mouse breast cancer cells isolated from MMTV-neu transgenic mice; test: Tumorsphere formation assay, MMTV-neu primary cells (Example 1); assay type: cell-based; details: 11 days, hPRL 0.5 μg/ml, ±0.34, p<0.001, data not shown
Experimental: as §2
MCF-7 and MMTV-neu cells were cultured by standard methods known in the art. Briefly, unsorted MCF-7 cells were plated in ultra-low attachment plate (Corning Inc, Corning, N.Y.) at a density of 5000 cells/ml in serum-free Dulbecco's Modified Eagle Medium—F12 (DMEM-F12) supplemented with 0.4% bovine serum albumin (BSA), 10 ng/mL of basic fibroblast growth factor (bFGF), 20 ng/ml of epidermal growth factor (EGF), 5 μg/ml of insulin (all from Sigma-Aldrich Co., St. Louis, Mo.). Tumorspheres were allowed to form in 37° C. with 5% CO2 for 10 days. Culture medium were replaced two times in the course of treatment. […]
as §3
Tumorsphere formation was determined by spheres formed in the culture medium. Spheres number were counted manually under four random fields of the 24-well at 40× magnification.

Molecule	Tumor size (McNeuA implanted mice)	Time to relapse (McNeuA implanted mice)	number of tumorspheres formed / tumorspheres formation [1]	number of ALDH-negative cells [2]	number of ALDH-positive cells [2]	tumorsphere formation (number and size of tumorspheres) [3]	number of ALDH+ cells (ALDH positive cell population) [4]	number of ALDH− cells [4]	increase of tumorspheres formation [5] [fold]
COc1cccc2c1C(=O)c1c(O)c3c(c(O)c1C2=O)C[C@@](O)(C(=O)CO)C[C@@H]3O[C@H]1C[C@H](N)[C@H](O)[C@H](C)O1 [Dox, doxorubicin]	decrease	X days after last treatment	negligible effect	reduced	unaffected	negligible affect	no significant change	decreased	–
B1	increase comparable to “no	no remission	slightly increased	negligible affect	negligible affect	negligible affect	–	–	2.3
